Literature values, collected in patent US5215744A, “Methods for the treatment of tumors” (Boehringer Ingelheim GmbH, priority 1987, dated 1993).

How the values were obtained:
[1] = tested on: antimitotic effect of interferon and its natural killer cell activating activity; conditions: with interferon; cited from earlier work
[2] = tested on: human promyelocytic leukemic cell line; conditions: cited from earlier work
[3] = tested on: syngeneic Wilms Tumor (nephroblastoma); conditions: rat, in vivo; cited from earlier work
C1300 neuroblastoma = conditions: mouse, in vivo; cited from earlier work
HM-Kim mammary carcinoma = conditions: rat, in vivo; cited from earlier work
cAMP = conditions: cited from earlier work
neoplastic cells = conditions: cited from earlier work
[4] = tested on: interferon antitumor / growth inhibitory effect; conditions: cited from earlier work
PDE = conditions: cited from earlier work

OCCN(CCO)c1nc(N2CCCCC2)c2nc(N(CCO)CCO)ncc2n1 [mopidamole, 2,6-bis-(diethanolamino)-4-piperidino-pyrimido[5,4-d]pyrimidine]
potentiation of interferon antimitotic effect and NK cell activating activity [1]: potentiates the antimitotic effect of interferon and its natural killer cell activating activity
reverse transformation of malignant cells [2]: promotes a reverse transformation of the malignant cells to normal
spontaneous lung metastases [3]: diminish significantly spontaneous lung metastases
spontaneous lung metastases (C1300 neuroblastoma): diminish significantly spontaneous lung metastases
spontaneous lung metastases (HM-Kim mammary carcinoma): diminish significantly spontaneous lung metastases
cAMP levels (cAMP): increase cAMP levels
3H-thymidine incorporation (neoplastic cells): inhibition of 3H-thymidine incorporation into neoplastic cells
mitotic rate (neoplastic cells): direct inhibition of the mitotic rate
synergism with interferon ([4]; Ambrus et al. 1983): no synergism was seen
synergism with α and γ interferon ([4]; Wolf et al.): no synergistic inhibitory effect
effect on antitumor effect of leukocyte and fibroblastic interferon ([4]; tissue culture): potentiates the antitumor effect of leukocyte and fibroblastic interferon in tissue culture
effect on growth inhibition by human fibroblastic β-interferon ([4]; with β-interferon): potentiates the growth inhibitory effect of human fibroblastic β-interferon
PDE induced decomposition of cAMP (PDE): inhibition of PDE induced decomposition of cAMP
